Source: patent US20260284051A1, “METHIONINE ADENOSYLTRANSFERASE 2A (MAT2A) INHIBITOR COMBINATIONS AND USES THEREOF” (INSILICO MEDICINE IP LIMITED, priority 2023, published 2026)

Tests used:
KP4 MTAP null xenografts = assay: Efficacy study of KP-4 human pancreatic cancer xenograft model in NOD SCID mice; type: in vivo; conditions: for Tumor volume (mm^3) Final (mean): Mean ± SD
Description: Efficacy Study of KP-4 Human Pancreatic Cancer Xenograft Model in NOD SCID Mice
The KP-4 tumor cell line was maintained in vitro as monolayer culture in RPMI 1640 medium supplemented with 10% fetal bovine serum at 37° C. in an atmosphere of […] in air. The tumor cells were routinely subculture weekly by trypsin-EDTA treatment, not to exceed 4-5 passages. The cells growing in an exponential growth phase was harvested and counted for tumor inoculation.
Each mouse was inoculated subcutaneously on the central right flank with KP-4 tumor cells (1×10^7) in 0.1 mL of RPMI-1640 without serum for the tumor development. The treatment started when the mean tumor size reached approximately 100 mm^3. Mice were assigned to groups such that the mean tumor volume is the same for each treatment group and time point.
For routine monitoring, all study animals were monitored for not only tumor growth but also behavior such as mobility, food, and water consumption (by cage side checking only), body weight (BW), eye/hair matting and any other abnormal effect. Any mortality and/or abnormal clinical signs were recorded.
Body weights of all animals were measured twice a week throughout the study. Body weight change, expressed in %, will be calculated using the following formula: BW change (%)=(BWDay x/BWDay 0)×100, where BWDay x is BW on a given day, and BWDay 0 is BW on Day 0 (initiation of treatment).
The measurement of tumor size were conducted twice a week with a caliper and the tumor volume (mm^3) was estimated using the formula: TV=a×b^2/2, where a and b are long and short diameters of a tumor, respectively. The TVs were used for calculation of the tumor growth inhibition (TGI, an indicator of antitumor effectiveness) value using the formula: TGI (%)=[1−(Tn−T0)/(Cn−C0)]×100%, only over the dosing period (dosing days 0 to days n). Where: Tn—is the avg tumor volume at the respective day “n” after dosing throughout treatment period; T0—is the avg tumor volume in the treatment group at day 0 before treatment (immediately before); Cn—avg tumor volume in the control group at the respective day “n” after dosing throughout treatment period; and C0—average tumor volume in the control group at day 0 before treatment (immediately before). The experiment was terminated when the mean tumor volume exceeded 2000 mm^3 or severe body weight loss.
The statistical software GraphPad Prism (version number: 8) was used to analyze the difference in tumor volume between the treatment group and the solvent control group. Two-way ANOVA and Bonferroni multiple tests were used to compare whether there was a significant difference in tumor volume between the vehicle control group and each treatment group during the administration period.
(§1) Mean tumor volume at dosing start was approximately 102 mm^3, with ten mice randomized to each treatment group. In the KP4 MTAP null tumor model, mice were dosed orally, once per day (QD) with Vehicle, once per day (QD) with Compound 1 at 1, 3 mg/kg, once per day (QD) with AG270 at 100 mg/kg, mice were intravenous, per week with Docetaxel at 2.5 mg/kg, or Compound 1 combined with Docetaxel at each dose level.

[1] = test system: HCC15 MTAP null xenografts; assay: Efficacy study of HCC15 human lung cancer xenograft model in NOD SCID mice; type: in vivo; conditions: for Tumor volume (mm^3) Final (mean): Mean ± SD
Description: Efficacy Study of HCC15 Human Lung Cancer Xenograft Model in NOD SCID Mice Methods:
The HCC15 cells were maintained in vitro as a monolayer culture in 90% 1640+10% FBS, 100U/ml penicillin and 100 μg/ml streptomycin at 37° C. in an atmosphere of 5% CO2 in air. The tumor cells were routinely subcultured at a ratio of 1:2 to 1:3 every 3-4 days. Alternatively, Cultures were maintained by addition or replacement of fresh medium. Started cultures at 5×10^5 cells/mL and maintained between 0.5×10^5 and 2×10^6 cells/ml.
NOD SCID mice, female, 6-8 weeks, weighing approximately 20-22 g.
Each mouse were inoculated subcutaneously at the right flank with HCC15 cells in a 0.2 mL mixture of 1640 for tumor development (5×10^6 cells/mouse). Dosing was started when the average tumor size reaches approximately 100-200 mm^3 for the tumor efficacy study with tool and med chem molecules to look for efficacy vs vehicle tumor growth.
as §1, with “133.09” for “102”, “HCC15” for “KP4”, “at” for “at 1,”

[2] = Docetaxel 2.5 mg/kg intravenous per week

Compound	TGI (%) (KP4 MTAP null xenografts; AG270 100 mg/kg orally QD)	Tumor volume (mm^3) Final (mean) (KP4 MTAP null xenografts; AG270 100 mg/kg orally QD)	TGI (%) ([1]; AG270 100 mg/kg orally QD, 100 mg/kg)	Tumor volume (mm^3) Final (mean) ([1]; AG270 100 mg/kg orally QD) [mm^3]	TGI (%) (KP4 MTAP null xenografts; [2])	Tumor volume (mm^3) Final (mean) (KP4 MTAP null xenografts; [2])	TGI (%) [1, 2] [%]	Tumor volume (mm^3) Final (mean) [1, 2] [mm^3]
AG270 [reference compound]	55.7	1,070 ± 132 mm^3	55.3	544 ± 30				
CC(=O)O[C@@]12CO[C@@H]1C[C@H](O)[C@@]1(C)C(=O)[C@H](O)C3=C(C)[C@@H](OC(=O)[C@H](O)[C@@H](NC(=O)OC(C)(C)C)c4ccccc4)C[C@@](O)([C@@H](OC(=O)c4ccccc4)[C@H]21)C3(C)C [Docetaxel, docetaxel, reference compound]					51.6	1,159 ± 129 mm^3	58.5	515 ± 36
